Test results reported in publication PMC6600241, “Identification and Structure-Activity Studies of 1,3-Dibenzyl-2-aryl imidazolidines as Novel Hsp90 Inhibitors” (Molecules, 2019).
Where two headings read alike, the source gives them in different places.

Legend:
MCF-7 cells = assay: MTT anti-proliferative assay on MCF-7 cells; format: cell-based, human
Description: (§1) The anti-proliferative activity of compounds was determined by MTT (3-[4,5-dimethylthiazole-2-yl]-2,5-diphenyltetrazolium bromide) assay on MCF-7 and A549 cell lines, respectively. Cells were purchased from the Institute of Basic Medical Science, Chinese Academy of Medical Science (Beijing, China). Cells were maintained in RPMI-1640 with 10% fetal bovine serum (FBS) and 1% Penicillin-Streptomycin Solution (PS) and cultured at 37 °C in a humidified atmosphere containing 5% CO2. Compounds to be evaluated were dissolved in DMSO (dimethyl sulfoxide), diluted in RPMI-1640, and stored at −20 °C before use. Cells were seeded in 96-well plates at a density of 5000 cells/well (200 μL) and incubated overnight. Culture medium was replaced with fresh RPMI (Roswell Park Memorial Institute)-1640 containing compounds in different concentrations (100 μM–50 μM–25 μM–12.5 μM–6.25 μM–3.125 μM). Then, cells were incubated in a 5% CO2 incubator for 48 h. The 20 μL MTT solution (5 mg/mL) was added to each well and incubated at 37 °C. After 4 h, the medium was removed and formazan crystals were dissolved in 100 μL DMSO. Absorbance was measured at a wavelength of 490 nm using Synergy H1 (BioTek Instruments, Inc., Winooski, VT, USA). IC50 values were calculated by GraphPad Prism 5 (GraphPad Software, Inc., San Diego, CA, USA).

A549 cells = assay: MTT anti-proliferative assay on A549 cells; format: cell-based, human; conditions: mean ± SD, three experiments
Description: as §1

human Hsp90α = biological target: T1, human Hsp90α (Homo sapiens, UniProt P07900); assay: Fluorescence polarization (FP) competitive binding assay, Hsp90α N-Terminal Domain Assay Kit; conditions: FITC-labeled geldanamycin competition, mean ± SD, three experiments
T1 construct: FP assay using Hsp90α N-Terminal Domain Assay Kit (BPS Bioscience, Catalog #50293, CA, USA); purchased BPS Bioscience 50293
Description: In brief, the Hsp90 assay buffer (15 μL), 40 mM dithiothreitol (DTT) (5 μL), 2 mg/mL BSA (5 μL), and H2O (40 μL) were added to the plate. To each well, 100 nM fluorescein isothiocyanate (FITC)-labeled geldanamycin (5 μL) and diluted compounds in different concentrations (0.5, 5, 50, 500 μM, 10 μL) were added in an orderly manner. The reactions were initiated by adding 20 μL of Hsp90α (17 ng/μL). […] The data were analyzed using GraphPad Prism 5 (GraphPad Software, Inc.).

Her2 = assay: Western blotting, Her2 expression in MCF-7 cells; format: cell-based, human; conditions: 24 h
Description: (§2) Primary antibodies against Hsp70, Hsp90, Her2, and GAPDH were bought from Abcam (Cambridge, MA, USA). HRP (horseradish peroxidase) labeled anti-rabbit immunoglobulin G (H + L) secondary antibody was purchased from Abbkine (Redlands, CA, USA). MCF-7 cells were cultured as described above to a density of 10^6 cells per dish. […] Cells were washed with cold phosphate buffered saline (PBS, pH = 7.4) three times and lysed in radio immunoprecipitation assay (RIPA) lysate (containing 1% phenylmethanesulfonyl fluoride (PMSF)) on ice for 45 min. The lysates were collected and clarified at 12,000× g for 20 min at 4 °C using high speed refrigerated centrifuge. Protein concentration was determined by the bicinchoninic acid (BCA) protein assay kit. The protein sample (20 µg) was electrophoresed using 8% SDS-PAGE (sodium dodecyl sulfate- polyacrylamide gel electrophoresis), transferred to poly(vinylidene fluoride) (PVDF) membranes, and then blocked for 1 h in 5% skim milk in TBST (20 mM Tris-HCl pH 7.4, 100 mM NaCl, and 0.1% Tween 20). The membranes were immunoblotted with primary antibodies for 2 h at room temperature. After incubation with an HRP anti-rabbit IgG (H + L) (1:100,000) as a secondary antibody, the bands were detected using the ECL^TM Prime Western Blotting Detection System (ProteinSimple, San Jose, CA, USA). The density of proteins was determined using the AlphaView SA (Alpha Innotech Corp., version 3.4.0.0, San Leandro, CA, USA).

Hsp70 = assay: Western blotting, Hsp70 expression in MCF-7 cells; format: cell-based, human; conditions: 24 h; for expression of Hsp70: MCF-7 cells, compound at IC50 concentration
Description: as §2

Hsp90 = assay: Western blotting, Hsp90 expression in MCF-7 cells; format: cell-based, human; conditions: 24 h; for expression of Hsp90: MCF-7 cells, compound at IC50 concentration
Description: as §2

[1] = Homo sapiens, MCF7, MTT, 48-h post treatment, mean ± SD, three experiments, read-out: IC50 MCF-7
[2] = Homo sapiens, A549, 48-h post treatment
[3] = Homo sapiens, MCF7, Figure 3, mean ± SD, n = 3, read-out: anti-proliferative activity against MCF-7 cells (IC50), top 21 molecules from virtual screening
[4] = MCF-7 cells, compound at IC50 concentration
[5] = MCF-7 cells, 0, 5, 10, 20 and 40 µM

Compound	IC50 (MCF-7 cells; [1]) [µM]	IC50 (A549 cells; [2]) [µM]	further results
Brc1cncc(C2N(Cc3ccccc3)CCN2Cc2ccccc2)c1 [Compound 4p]	45.2 ± 0.63	72.87 ± 0.66	
NC(=O)c1nnn(Cc2ccccc2)c1NC(=O)CSc1nnc(-c2ccco2)o1 [Compound 1d]			IC50 (MCF-7 cells; [3]): 243.3 ± 0.99 µM
O=S(=O)(c1ccccc1)c1nc(-c2ccco2)oc1NCc1ccc(F)cc1 [Compound 3e]			IC50 (MCF-7 cells; [3]): 238 ± 0.71 µM
Fc1ccc(Cl)cc1C1N(Cc2ccccc2)CCN1Cc1ccccc1 [Compound 4i, 1,3-dibenzyl-2-(5-chloro-2-fluoro-phenyl)-imidazolidine]	27.86 ± 0.01	59.3 ± 0.83	IC50 (human Hsp90α): 610 ± 14 nM
1,3-dibenzyl-2-(3-bromo-5-thiazolyl)-imidazolidine [Compound 4k]			IC50 (MCF-7 cells; MTT, 48-h post treatment, mean ± SD, three experiments, read-out: IC50 MCF-7): 77.01 ± 0.01 µM; IC50 (A549 cells; 48-h post treatment): 498.8 ± 0.25 µM
O=[N+]([O-])c1ccc(C2N(Cc3ccccc3)CCN2Cc2ccccc2)s1 [Compound 4a]	21.6 ± 0.57	31.22 ± 0.31	IC50 (human Hsp90α): 12 ± 10 nM; expression level of Her2 (Her2; [4]): significantly down-regulated; expression level of Her2 down-regulated to (Her2; [4]): 48%; expression of Hsp70 (Hsp70): significantly induced; expression of Hsp90 (Hsp90): slightly increased
Clc1ccc(C2N(c3ccccc3)CCN2c2ccccc2)c(Cl)n1 [Compound 6d]	323 ± 2.28	248.6 ± 0.57	
CCN1CCN(CC)C1c1cc(Cl)ccc1F [Compound 7b]	158.9 ± 0.14	164 ± 1.41	
C=CCNC1=C2CC(C)CC(OC)C(O)C(C)C=C(C)C(OC(N)=O)C(OC)C=CC=C(C)C(=O)NC(=CC1=O)C2=O (stereo not shown) [Compound 17-AAG, reference compound]	7.18 ± 0.13	3.54 ± 0.08	
CCOC(=O)c1nnn(Cc2ccccc2Cl)c1NC(=O)CN1CCC(C)CC1 [Compound 1c]			IC50 (MCF-7 cells; [3]): 134 ± 0.42 µM
Clc1ccc(C2N(Cc3ccccc3)CCN2Cc2ccccc2)s1 [Compound 4d, 1,3-dibenzyl-2-(5-chlorothiophene)-imidazolidine]	68.35 ± 0.44	56.3 ± 1.27	IC50 (human Hsp90α): 672 ± 10 nM
O=[N+]([O-])c1ccc(C2N(Cc3ccccc3)CCN2Cc2ccccc2)cc1 [Compound 4h, 1,3-dibenzyl-2-(4-nitro-phenyl)-imidazolidine]	117.7 ± 0.01	55.6 ± 0.49	
O=S(=O)(c1ccccc1)c1nc(-c2ccc(Cl)cc2)oc1NCCCN1CCOCC1 [Compound 3d]			IC50 (MCF-7 cells; [3]): 70.34 ± 0.2 µM
O=[N+]([O-])c1ccccc1C1N(Cc2ccccc2)CCN1Cc1ccccc1 [Compound 4g, 1,3-dibenzyl-2-(2-nitro-phenyl)-imidazolidine]	40.91 ± 0.05	40.6 ± 0.51	
Cc1ccc(O)c(C2N(Cc3ccccc3)CCN2Cc2ccccc2)c1 [Compound 4b]	50.62 ± 0.26	88.58 ± 0.08	IC50 (human Hsp90α): 612 ± 14 nM; expression level of Her2 (Her2; [4]): significantly down-regulated; expression of Hsp70 (Hsp70): significantly induced; expression of Hsp90 (Hsp90): slightly increased
c1ccc(CN2CCN(Cc3ccccc3)C2c2cncnc2)cc1 [Compound 4r]	51.4 ± 0.54	80.8 ± 1	

Compound	IC50 (MCF-7 cells; [1]) [µM]	IC50 (A549 cells; [2]) [µM]	further results
Clc1ncc(C2N(Cc3ccccc3)CCN2Cc2ccccc2)s1 [Compound 4j, 1,3-dibenzyl-2-(2-chloro-5-thiazolyl)-imidazolidine]	33.12 ± 0.23	35.3 ± 0.14	IC50 (human Hsp90α): 310 ± 14 nM; expression level of Her2 regulated (Her2; [5]): concentration-dependent manner; expression level of Hsp70 regulated (Hsp70; [5]): concentration-dependent manner; expression level of Hsp90 regulated (Hsp90; [5]): concentration-dependent manner
Clc1ccc(C2N(Cc3ccccc3)CCN2Cc2ccccc2)c(Cl)n1 [Compound 4n]	40.4 ± 0.51	52.11 ± 0.5	IC50 (human Hsp90α): 102 ± 10 nM
Cc1ccc(C2N(Cc3ccccc3)CCN2Cc2ccccc2)s1 [Compound 4e, 1,3-dibenzyl-2-(5-Methylthiophene)-imidazolidine]	119.3 ± 0.42	113 ± 1.41	
COc1ccc(-c2nnc(SCC(=O)N3CCOCC3)n2Cc2ccccc2)cc1 [Compound 1b]			IC50 (MCF-7 cells; [3]): 133.6 ± 1.13 µM
CCN1CCN(CC)C1c1ccnc(Cl)c1 [Compound 7a]	> 500	250.1 ± 1.27	
Clc1ncc(C2N(c3ccccc3)CCN2c2ccccc2)s1 [Compound 6b]	161.6 ± 0.57	172 ± 1.41	
O=C(Cn1c(-c2ccccn2)nc2ccccc21)NCCCN1CCOCC1 [Compound 2b]			IC50 (MCF-7 cells; [3]): 310.5 ± 0.71 µM
COc1ccc(C(=O)/C=C/Nc2ccc(S(=O)(=O)Nc3ccc(OC)nn3)cc2)cc1 [Compound 3a]			IC50 (MCF-7 cells; [3]): 29.2 ± 0.34 µM
c1ccc(N2CCN(c3ccccc3)C2c2ccco2)cc1 [Compound 6a]	40.77 ± 0.39	123.4 ± 0.85	
Cc1cc(NC(=O)CCS(=O)(=O)c2nc(-c3ccc4c(c3)OCO4)cc(C(F)(F)F)n2)no1 [Compound 3b]			IC50 (MCF-7 cells; [3]): 32.4 ± 0.55 µM
c1ccc(CN2CCN(Cc3ccccc3)C2c2cccs2)cc1 [Compound 4c, 1,3-dibenzyl-2-thiophene-imidazolidine]	80.04 ± 0.63	78.18 ± 0.15	
Fc1ccc(Cl)cc1C1N(c2ccccc2)CCN1c1ccccc1 [Compound 6c]	43.7 ± 1.03	46.14 ± 0.2	IC50 (human Hsp90α): 1930 ± 13 nM
O=C(Cn1c(-c2ccccn2)nc2ccccc21)NCCc1ccccc1 [Compound 2a]			IC50 (MCF-7 cells; [3]): 190.6 ± 1.41 µM
c1ccc(CN2CCN(Cc3ccccc3)C2c2cc3ccccc3s2)cc1 [Compound 4f, 1,3-dibenzyl-2-(1-benzothiophene)-imidazolidine]	219.4 ± 0.57	136 ± 1.41	
CN1CCN(C)C1c1cc(Cl)ccc1F [Compound 8a]	250.1 ± 0.27	149 ± 1.56	
